The text below walks through data of patent US5545648A (Canadian Spinal Research Organization, priority 1992, dated 1996).

Values joined by “and” are separate entries in the source; they are usually repeats but may differ in a detail not shown here. Equal entries are not always repeated. “Also recorded” adds a separate entry of the source.

Data set [1] concerns spinal cord injured patients. Briefly: Vibration sensation score. Type of data set: in vivo, human. Here is the method: (§1) The schedule of each trial was the same. The patient was admitted to the hospital on the preceding day and in the early morning was assessed by neurological examination and electro-diagnostic evaluation. Administration of the drug or placebo, through an in dwelling venous catheter, was then begun and continued for approximately 2 hours, arranged in 20 minute sequences based on delivery of 1 ml aliquots of the 4-AP solution. The patient was monitored electroencephalographically at frequent intervals throughout the procedure. Samples of blood and urine were obtained from an additional intravenous catheter and from the urinary catheter respectively. Blood was obtained at intervals up to 5 hours from the beginning of drug delivery and urine obtained pre-infusion and at 1 and 2 hours after the beginning of infusion. The patients were re-evaluated by complete neurological examination, by the same examiner, at the end of the period of drug delivery. They were then re-examined with the electrodiagnostic tests. A more limited neurological examination was sometimes performed during drug delivery in an attempt to identify any early changes, without producing significant testing fatigue. The electrodiagnostic tests were repeated at 2 hours after the cessation of drug delivery. Patients showing apparent effects of the treatment remained in the hospital overnight and were examined on the following day. Subsequent contact with the patients was by telephone interview or as a result of their correspondence regarding longer term changes associated with their treatment.
Patients were evaluated using a modified form of the American Spinal Injury Association (ASIA) Standards for Neurological Classification of Spinal Injury Patients (revised 1990). The modifications were mainly required to simplify the examination so that it could be performed on patients lying on a bed with intravenous catheters, electrodes and urethral catheters restricting the range of motion. Examinations performed after the day of drug delivery were made on an outpatient basis with the subjects partially clothed, and evaluation of dermatomes was sometimes incomplete. Each part of the examination was videotaped for later review and was repeated on the two sides of the body.
Sensory abilities were graded on an analogous 0-4 point scale:
The sensory modalities tested were light touch, pinprick, vibration, joint position, and temperature. The dermatomes tested for touch and pinprick were: C5,6,7,8, T1,T7-9,L1,2,3,4,5, and S1, giving a total possible score of 96 for each modality. Vibration sensation was usually tested bilaterally, at the shoulder, elbow, knee and ankle. Temperature sensation was tested, with the subject's eyes closed, by blowing cool air from a distance or breathing warm air in close proximity on the dorsal surface of the hands and feet. Joint position sense was examined with the subject's eyes closed, by imposed flexion and extension movements of the thumb and great toe. The total possible score for the full sensory examination was 256 points.
Though the examiners assigned half point scores in cases where they felt that subjects fell between score categories, any half point differences between pre- and post-infusion scores have been ignored in this analysis. Also omitted from this tabulation are the scores for vibration sensation, which are shown separately in Table 3. […]

Data set [2] in a line: Plasma levels of 4-AP after intravenous infusion (column liquid chromatography). The class given is in vivo, human. Here is the method:
The drug was obtained in purified powder form from the Regis Chemical Company (Morton Grove, Ill.) and prepared as an injectable solution, using a 0.9% saline vehicle (Uges and Huizinga, 1981), by the pharmacy of St. Joseph's Hospital. The pharmacy was also responsible for testing pyrogenicity, randomizing the order in which drug and vehicle were administered to different patients, and for providing an escalating scale of dosage during the course of the study. The 4-AP for the first two patients was prepared at a concentration of 3 mg/ml, and the concentration was increased to 4 and 5 mg/ml for succeeding subjects (see Table 1). The drug was further diluted by a factor of 50 times in dextrose saline before delivery, and was administered in the form of a continuous intravenous infusion at a rate of 150 ml/hr controlled by a peristaltic infusion pump. Therefore the delivery rate of the drug increased from 9 mg/hr in the first two patients to 15 mg/hr in the last four. Total intended dosage ranged from 18 to 30 mg. The vehicle control was indistinguishable from the drug solution and was delivered in an identical manner.
as §1
Two of the patients who reported more prolonged effects of the drug were returned to the hospital after 4 months for a second, unblinded trial, which included neurological examinations daily for 3-4 days. Plasma samples were also obtained daily from these two patients, for measurement of 4-AP.
Measurement of 4-AP in plasma and urine
Samples of blood were collected from an in dwelling venous catheter in the arm opposite that into which the drug was delivered. Ten or eleven such samples were obtained at intervals up to 5 hours after the initiation of drug delivery (see FIG. 1). Urine samples were withdrawn from the patients' urinary catheter bags at 1 and 2 hours after the initiation of drug infusion.
Plasma and urine samples were stored at -80° C. until 4-AP levels were analyzed by means of column liquid chromatography, according to a technique described in detail elsewhere (Kostka et al, 1992). Briefly, both plasma and urine samples were subjected to benzoylation by the Schotten-Baumann reaction to convert 4-AP to N-benzoyl-4-AP (Bz4-AP) prior to liquid-liquid -extraction. Propionyl procainamide (PPA) was chosen as the internal standard. […]

Data set [3] concerns surviving myelinated axons of spinal cord. To be noted: single nerve fibers; cited from earlier work.
The mark [4] stands for this setting: 2 hours after infusion of 4-AP, total of subjects.
Where [5] appears, read: 2 hours after infusion of 4-AP, total possible 32, one line per subject: b182 RB, SC, HT, LJ, EB, b187 GCh, AW, b189 GCu.

On to `Nc1ccncc1` [4-AP, 4-aminopyridine], for which, in data set [1] (setting [4]), the “change in total score for vibration sensation, +ve, TOTAL” value was “+1” and the “change in total score for vibration sensation, -ve, TOTAL” value is -12. In data set [1] (setting [5]), the “change in total score for vibration sensation, +ve” value was 0 and +1; the “change in total score for vibration sensation, -ve” value is 0 and -7 and -4 and -2. In data set [1] (after 4-AP infusion, three subjects), the “vibration sensation score (in words)” value was “scores in three subjects decreased substantially”. The “plasma level of 4-AP after end of infusion” value in data set [2] (2-3 hours after the end of infusion, all subjects) is listed as “significant plasma level”. In addition, the “plasma level remaining relative to peak level” value in data set [2] (by 2 days after the infusion, from rate of decline in two patients) is listed as “less than 1%”. In data set [2] (dose in mg/kg/hr (FIG. 2)), the “correlation of peak plasma level with dose administered” value is listed as “correlated significantly”. The concentration at 48 h in data set [2] (human, plasma, iv, 48 hours / 2 days after second, unblinded administration, subjects, read-out: 4-AP plasma concentration (below limit of detection)) is less than 3 ng/mL. For the same compound, the “time of peak level in the circulation” value in data set [2] (i.v. infusion approximately 2 hours) was “slightly before or after the end of the infusion period”. Moreover, the “peak plasma level achieved for each mg/kg infused” value in data set [2] (i.v. infusion over approximately 2 hours, least squares regression, per mg/kg) is given as “approximately 0.27 mg/l”. The “plasma level of 4-AP the day after infusion” value in data set [2] (second administration, two subjects) was “detectable levels of the drug in the plasma the day after infusion”. In addition, in data set [2] (two subjects, 3-4 days), the “correlation of time course of elimination with prolonged neurological effects” value was “clearly did not correlate”. In data set [2] (up to 5 hours from start of infusion, most subjects), the “oscillation of measured drug levels” value is reported as “some degree of oscillation of the measured drug levels; also recorded: oscillation in the measured drug levels”. In addition, the “overcoming of conduction block” value in data set [3] is reported as “Some of this conduction block can be overcome”.
